According to patent US20060167062A1, “Enema preparation” (priority 2003, published 2006):

Assays:
rat model of colitis [1] = test: Rat model of colitis (TNBS-induced), incidence of diarrhea, enema (intra-rectal) administration; type: in vivo; details: for incidence of diarrhea: vehicle control 73.9%
Protocol: A rat model of colitis was prepared in accordance with the method by Morris et al. (Morris GP et al., Hapten-induced model of chronic inflammation and ulceration in the rat colon. Gasteroenterology, 96: 795-803, 1989). Specifically, the rats were fasted for approximately 24 hr and anesthetized with ether. A Teflon catheter (registered trade mark) was inserted into the lumen of the colon via the anus. The tip of the catheter was advanced to 8 cm from the anus, and 0.25 ml of TNBS solution (final concentration of 60 mg/mL in 50% ethanol) was injected into the colon. Rats were held in a vertical position for 30 seconds after TNBS injection (Day-0). One day after an injection of TNBS (Day-1), rats were randomly allocated to the four groups described below based on body weight using a stratified random sampling method. The groups were as follows: The pharmacologically active ingredient and its vehicle were delivered at 8 cm orad to the anal verge of conscious rats through a Teflon catheter (registered trade mark) inserted into the lumen of the colon via the anus. They were administered once daily in the morning for 7 consecutive days from Day-1. On the Day-B, the rats were anesthetized with ether, and sacrificed by exsanguination. The colon, from the end of the cecum to the anus, was excised, opened by a longitudinal incision, and the feces were macroscopically assessed at the excision of colons. When feces were not solid, it ws judged as diarrhea. Rats with no feces in the colon were excluded from diarrhea evaluation. The results of the incidence of diarrhea were expressed as the proportion of rats with diarrhea in each group. Statistical analysis was performed between the vehicle control group (Group A) and the groups administered with the pharmacologically active ingredient (Group B to D) using Fisher's exact test (two-sided) to which Bonferroni correction, which takes multiplicity into consideration, was applied. Statistical significance is defined as p<0.05.

rat model of colitis [2] = test: Rat model of colitis (TNBS-induced), incidence of diarrhea, oral administration; type: in vivo
Protocol: A rat model of colitis was prepared in accordance with the method by Morris et al. (Morris GP et al., Hapten-induced model of chronic inflammation and ulceration in the rat colon. Gasteroenterology, 96: 795-803, 1989). Specifically, the rats were fasted for approximately 24 hr and anesthetized with ether. A Teflon catheter (registered trade mark) was inserted into the lumen of the colon via the anus. The tip of the catheter was advanced to 8 cm from the anus, and 0.25 ml of TNBS solution (final concentration of 60 mg/mL in 50% ethanol) was injected into the colon. Rats were held in a vertical position for 30 seconds after TNBS injection (Day-0).
On the Day-B, the rats were anesthetized with ether, and sacrificed by exsanguination. The colon, from the end of the cecum to the anus, was excised, opened by a longitudinal incision, and the feces were macroscopically assessed at the excision of colons. When feces were not solid, it ws judged as diarrhea. Rats with no feces in the colon were excluded from diarrhea evaluation.

SMILES: CCOc1ccc(-c2nc(-c3cccc(C(=O)O)n3)cs2)cc1OCC [pharmacologically active ingredient, 6-[2-(3,4-diethoxyphenyl)thiazol-4-yl]pyridine-2-carboxylic acid]
- incidence of diarrhea (rat model of colitis [1]; Group B, 0.1 mg/kg/day enema once daily for 7 consecutive days from Day-1): 33.3%
- incidence of diarrhea (rat model of colitis [1]; Group C, 0.3 mg/kg/day enema once daily for 7 consecutive days from Day-1): 20.0%
- incidence of diarrhea (rat model of colitis [1]; Group D, 1 mg/kg/day enema once daily for 7 consecutive days from Day-1): 20.0%
- incidence of diarrhea compared with the vehicle control group (rat model of colitis [1]; Groups B to D, 0.1 to 1 mg/kg/day enema, Fisher's exact test with Bonferroni correction, p<0.05): suppressed significantly
- amount with significant disorder-suppressing effect, intra-rectal relative to oral administration (rat model of colitis [1]; intra-rectal versus oral, rat model of colitis): one tenth
- incidence of diarrhea with oral administration (rat model of colitis [2]; 1 mg/kg/day): significantly effective
- incidence of diarrhea with oral administration (rat model of colitis [2]; lower than 1 mg/kg/day): no significant decrease
